Columns and labels:
[1] = test system: osteoblast cells where ageing model is formed by hydroxy-urea
Experimental: (§1) The 2nd group has been determined as the boric acid group by adding 0.1 mM boric acid into the osteoblast culture medium. The 3rd group is the ageing group and has been cultured with 1 mM hydroxy-urea to the osteoblast culture medium and has been determined as the experimental brittle bone disease group. The 4th group has been determined as the group where boric acid is applied to the osteogenesis imperfecta model by applying […] boric acid to the cells where ageing model has been formed. Boric acid has been applied to 2nd and 4th groups for 72 hours and group 1 and group 3 have been cultured in their own culture media at the same durations.

[2] = test system: osteoblast cells where hydroxy-urea is applied (in-vitro brittle bone disease model)
Experimental: as §1

[3] = after applying boric acid, hydroxy-urea ageing model
[4] = 4th group: osteoblast + 1 mM hydroxy-urea + boric acid, 72 hours

SMILES: OB(O)O [boric acid, Boric acid]
- cellular morphology [1, 3]: improved
- immuno-reactivity of osteocalcin released by osteoblasts [1, 3]: increases
- immuno-reactivity of osteonectin released by osteoblasts [1, 3]: increases
- proliferation in cells where ageing model is formed by hydroxy-urea ([1]; concluded from Ki-67 immuno-reactivity): triggers proliferation
- immuno-reactivity of Ki-67 (proliferation marker) ([1]; osteoblasts where boric acid is applied): greater
- cytoplasmic vacuoles [2, 4]: begin to occur
- epithelioid structure of osteoblast cells [2, 4]: preserve their epithelioid structures
- intercellular vacuoles [2, 4]: decrease
- augmentation of osteoblasts and protection of these cells from ageing ([2]; boric acid applied to the in-vitro model): favorable effects

From patent publication US12472204B2, “Compound of element acid, which is in allotropic form, which enters into cellular interaction in some bone diseases” (CELAL BAYAR UNIVERSITESI DIGER MERKEZLER MUDURLUGU, priority 2020, dated 2025)
